Test: xn = mol fraction of the nth substance listed

C=CCO + O
Settings	viscosity [mPa·s]
298.15 K, 101.33 kPa, x1 = 0.04829	1.349
298.15 K, 101.33 kPa, x1 = 0.09818	1.682
298.15 K, 101.33 kPa, x1 = 0.1362	1.789
298.15 K, 101.33 kPa, x1 = 0.146	1.846
298.15 K, 101.33 kPa, x1 = 0.2038	1.888
298.15 K, 101.33 kPa, x1 = 0.2149	1.895
298.15 K, 101.33 kPa, x1 = 0.2178	1.887
298.15 K, 101.33 kPa, x1 = 0.2213	1.892
298.15 K, 101.33 kPa, x1 = 0.2883	1.891
298.15 K, 101.33 kPa, x1 = 0.3655	1.796
298.15 K, 101.33 kPa, x1 = 0.4148	1.75
298.15 K, 101.33 kPa, x1 = 0.6057	1.537
303.15 K, 101 kPa, x1 = 0.1	1.415
303.15 K, 101 kPa, x1 = 0.199	1.604
303.15 K, 101 kPa, x1 = 0.299	1.603
303.15 K, 101 kPa, x1 = 0.4	1.531
303.15 K, 101 kPa, x1 = 0.5	1.44
303.15 K, 101 kPa, x1 = 0.6	1.369
303.15 K, 101 kPa, x1 = 0.696	1.297
303.15 K, 101 kPa, x1 = 0.795	1.233
303.15 K, 101 kPa, x1 = 0.896	1.176
313.15 K, 101 kPa, x1 = 0.1	1.082
313.15 K, 101 kPa, x1 = 0.199	1.23
313.15 K, 101 kPa, x1 = 0.299	1.238
313.15 K, 101 kPa, x1 = 0.4	1.202
313.15 K, 101 kPa, x1 = 0.5	1.143
313.15 K, 101 kPa, x1 = 0.6	1.096
313.15 K, 101 kPa, x1 = 0.696	1.045
313.15 K, 101 kPa, x1 = 0.795	1.002
313.15 K, 101 kPa, x1 = 0.896	0.9616
318.15 K, 101 kPa, x1 = 0.1	0.9613
318.15 K, 101 kPa, x1 = 0.199	1.09
318.15 K, 101 kPa, x1 = 0.299	1.103
318.15 K, 101 kPa, x1 = 0.4	1.072
318.15 K, 101 kPa, x1 = 0.5	1.031
318.15 K, 101 kPa, x1 = 0.6	0.991
318.15 K, 101 kPa, x1 = 0.696	0.9463
318.15 K, 101 kPa, x1 = 0.795	0.9099
318.15 K, 101 kPa, x1 = 0.896	0.876
323.15 K, 101 kPa, x1 = 0.1	0.8601
323.15 K, 101 kPa, x1 = 0.199	0.9754
323.15 K, 101 kPa, x1 = 0.299	0.9907
323.15 K, 101 kPa, x1 = 0.4	0.9622
323.15 K, 101 kPa, x1 = 0.5	0.9263
323.15 K, 101 kPa, x1 = 0.6	0.8973
323.15 K, 101 kPa, x1 = 0.696	0.8586
323.15 K, 101 kPa, x1 = 0.795	0.8284
323.15 K, 101 kPa, x1 = 0.896	0.8008

NC=O + CC(=O)N(C)C
viscosity [mPa·s], 101 kPa
Settings	298.15 K	308.15 K	318.15 K
x2 = 0.035	3.217	2.532	2.077
x2 = 0.07	3.457	2.677	2.18
x2 = 0.111	3.656	2.847	2.286
x2 = 0.15	3.822	2.95	2.357
x2 = 0.2053	3.966	3.037	2.416
x2 = 0.2414	3.971	3.057	2.42
x2 = 0.3009	3.932	3.027	2.389
x2 = 0.3563	3.789	2.92	2.31
x2 = 0.4177	3.537	2.741	2.16
x2 = 0.458	3.338	2.594	2.076
x2 = 0.5011	3.094	2.43	1.953
x2 = 0.5474	2.826	2.235	1.81
x2 = 0.5912	–	2.028	–
x2 = 0.5972	2.53	–	1.65
x2 = 0.65	2.251	1.812	1.505
x2 = 0.7092	1.916	1.579	1.316
x2 = 0.75	1.72	1.441	1.205
x2 = 0.7948	1.54	1.289	1.096
x2 = 0.891	1.21	1.035	0.901
